Biological target: T1, ROCKII or ROKα (Homo sapiens, UniProt O75116)
T1 construct: purchased Upstate 14-451
Assay: Determination of Rho kinase inhibition (33P-ATP Flash Plate assay)
Type: biochemical
Conditions: ATP 40 μM, respective form (salt or free base) as obtained in the examples
Method: Determination of Rho Kinase Inhibition
To measure Rho-kinase inhibition, IC50 values were determined according to the following protocol:
Buffer: 25 mM Tris pH7.5; 0.02% BSA; 5% Glycerol; 0.008% Triton X100; 2% DMSO, 1 mM DTT; 1 mM MgCl2; 0.5 μCi/well γ^33P ATP
Enzyme: ROCKII or ROKα) (Upstate, Catalog #14-451) 0.1 ng/μl
Final concentration of ATP in reaction mixture 40 μM
Biotinylated substrate, diluted to 0.25 μM with buffer described above (without ATP) • 1. 10 μl Tris buffer (±Inhibitor) • 2. Add 30 μL of enzyme solution • 3. Start the reaction with 30 μL of mix substrate/ATP/ATP33 • 4. Incubate for 20 min at room temperature • 5. Stop reaction with 30 μL of 50 mM EDTA • 6. Transfer 50 μL of stopped solution to Streptavidin Flash Plate plus, Perkin Elmer, SMP 103A • 7. Incubate for 30 min at RT • 8. Wash 4 times with 300 μl of PBS/0.1% Tween 20 • 9. Radioactivity in the well was determined
The following products/compounds were tested in said assay by using the respective form (salt or free base) obtained as in the examples described above and the following activities were measured.

T1 sequence (O75116 whole entry): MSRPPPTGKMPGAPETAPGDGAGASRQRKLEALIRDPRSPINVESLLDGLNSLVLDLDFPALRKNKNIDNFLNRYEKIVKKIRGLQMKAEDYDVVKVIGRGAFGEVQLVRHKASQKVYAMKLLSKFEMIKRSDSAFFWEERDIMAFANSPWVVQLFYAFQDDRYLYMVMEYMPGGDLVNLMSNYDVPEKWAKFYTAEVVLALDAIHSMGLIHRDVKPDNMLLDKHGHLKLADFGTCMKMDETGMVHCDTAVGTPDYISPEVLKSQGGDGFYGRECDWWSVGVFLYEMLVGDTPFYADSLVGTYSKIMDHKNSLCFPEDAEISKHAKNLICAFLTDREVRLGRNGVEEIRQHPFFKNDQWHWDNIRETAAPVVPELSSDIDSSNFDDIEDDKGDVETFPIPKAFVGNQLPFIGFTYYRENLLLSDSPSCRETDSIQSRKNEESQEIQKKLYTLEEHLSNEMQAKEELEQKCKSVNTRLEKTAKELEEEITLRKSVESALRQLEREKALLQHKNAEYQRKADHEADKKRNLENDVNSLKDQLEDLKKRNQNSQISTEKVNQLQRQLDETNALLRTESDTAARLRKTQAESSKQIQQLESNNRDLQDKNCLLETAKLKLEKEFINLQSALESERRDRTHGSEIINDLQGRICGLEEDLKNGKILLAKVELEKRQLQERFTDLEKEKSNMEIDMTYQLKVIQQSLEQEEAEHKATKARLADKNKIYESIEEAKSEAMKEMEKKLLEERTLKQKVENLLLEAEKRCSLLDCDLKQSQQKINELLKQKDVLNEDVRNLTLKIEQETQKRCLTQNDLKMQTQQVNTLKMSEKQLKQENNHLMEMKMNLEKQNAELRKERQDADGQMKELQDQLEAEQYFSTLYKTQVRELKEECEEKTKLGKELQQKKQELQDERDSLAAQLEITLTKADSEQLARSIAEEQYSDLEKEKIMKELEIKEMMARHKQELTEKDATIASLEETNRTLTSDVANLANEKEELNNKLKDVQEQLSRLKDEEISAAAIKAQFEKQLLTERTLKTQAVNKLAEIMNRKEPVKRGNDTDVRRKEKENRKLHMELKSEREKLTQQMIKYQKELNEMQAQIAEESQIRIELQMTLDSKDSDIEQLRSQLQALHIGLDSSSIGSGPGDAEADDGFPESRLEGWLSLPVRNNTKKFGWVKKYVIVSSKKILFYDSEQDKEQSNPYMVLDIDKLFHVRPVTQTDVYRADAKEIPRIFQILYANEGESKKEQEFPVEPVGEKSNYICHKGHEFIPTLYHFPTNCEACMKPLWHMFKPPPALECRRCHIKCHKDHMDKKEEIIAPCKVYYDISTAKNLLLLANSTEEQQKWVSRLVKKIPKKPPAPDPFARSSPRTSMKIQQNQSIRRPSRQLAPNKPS

| Compound | pIC50 |
| --- | --- |
| CC(C)CN(CC(C)C)[C@H]1CC[C@H](Oc2cc3cc[nH]c(=O)c3cc2Cl)CC1 [Example 65] | +++++ (6.0≦pIC50) |
| CCN[C@H]1CC[C@@H](Oc2cc3cc[nH]c(=O)c3cc2Cl)CC1 [Example 29] | +++++ (6.0≦pIC50) |
| N[C@H]1CC[C@@H](Oc2ccc3c(=O)[nH]ccc3c2Cl)CC1 [Example 11, 6-(cis-4-Amino-cyclohexyloxy)-5-chloro-2H-isoquinolin-1-one] | +++++ (6.0≦pIC50) |
| O=c1[nH]ccc2cc(O[C@H]3CC[C@@H](NCc4cc(Cl)cc(Cl)c4)CC3)c(Cl)cc12 [Example 69] | +++++ (6.0≦pIC50) |
| N[C@H]1CC[C@H](Oc2ccc3c(=O)[nH]ccc3c2)CC1 [Example 20, trans-6-(4-Amino-cyclohexyloxy)-2H-isoquinolin-1-one] | +++++ (6.0≦pIC50) |
| CCN(CC)[C@H]1CC[C@H](Oc2cc3cc[nH]c(=O)c3cc2Cl)CC1 [Example 56] | +++++ (6.0≦pIC50) |
| CCCCN(CCCC)[C@H]1CC[C@@H](Oc2ccc3c(=O)[nH]ccc3c2Cl)CC1 [Example 53] | ++++ (5.0≦pIC50<6.0) |
| O=c1[nH]ccc2cc(O[C@H]3CC[C@@H](NC4CC4)CC3)c(Cl)cc12 [Example 12, 7-Chloro-6-(cis-4-cyclopropylamino-cyclohexyloxy)-2H-isoquinolin-1-one] | +++++ (6.0≦pIC50) |
| CCCCN[C@H]1CC[C@H](Oc2cc3cc[nH]c(=O)c3cc2Cl)CC1 [Example 58] | +++++ (6.0≦pIC50) |
| O=c1[nH]ccc2cc(O[C@H]3CC[C@@H](NCC4CC4)CC3)ccc12 [Example 125, 6-[cis-4-(Cyclopropylmethyl-amino)-cyclohexyloxy]-2H-isoquinolin-1-one] | +++++ (6.0≦pIC50) |
| O=c1[nH]ccc2cc(O[C@H]3CC[C@@H](NCc4cc(Cl)ccc4Cl)CC3)c(Cl)cc12 [Example 70] | +++++ (6.0≦pIC50) |
| O=c1[nH]ccc2cc(O[C@H]3CC[C@@H](NCc4ccccc4)CC3)c(Cl)cc12 [Example 67] | +++++ (6.0≦pIC50) |
| Cc1cc2c(=O)[nH]ccc2cc1O[C@H]1CC[C@H](N)CC1 [Example 137, 6-(trans-4-Amino-cyclohexyloxy)-7-methyl-2H-isoquinolin-1-one] | +++++ (6.0≦pIC50) |
| O=c1[nH]ccc2cc(O[C@H]3CC[C@@H](NCc4cccc(Cl)c4)CC3)c(Cl)cc12 [Example 37] | +++++ (6.0≦pIC50) |
| CC(C)N[C@H]1CC[C@@H](Oc2ccc3c(=O)[nH]ccc3c2Cl)CC1 [Example 46] | +++++ (6.0≦pIC50) |
| O=c1[nH]ccc2cc(O[C@H]3CC[C@@H](N(CC4CC4)CC4CC4)CC3)c(Cl)cc12 [Example 41] | +++++ (6.0≦pIC50) |
| CCCN[C@H]1CC[C@@H](Oc2ccc3c(=O)[nH]ccc3c2Cl)CC1 [Example 44] | +++++ (6.0≦pIC50) |
| O=c1[nH]ccc2c(Cl)c(O[C@H]3CC[C@@H](NCC4CC4)CC3)ccc12 [Example 48] | +++++ (6.0≦pIC50) |
| Cc1cc2c(=O)[nH]ccc2cc1O[C@H]1CC[C@@H](N)CC1.Cl [Example 138, 6-(cis-4-Amino-cyclohexyloxy)-7-methyl-2H-isoquinolin-1-one] | +++++ (6.0≦pIC50) |
| CCCCN[C@H]1CC[C@@H](Oc2ccc3c(=O)[nH]ccc3c2Cl)CC1 [Example 45] | +++++ (6.0≦pIC50) |
| O=c1[nH]ccc2cc(O[C@H]3CC[C@@H](N(C4CC4)C4CC4)CC3)c(Cl)cc12 [Example 13, 7-Chloro-6-(cis-4-dicyclopropylamino-cyclohexyloxy)-2H-isoquinolin-1-one] | +++++ (6.0≦pIC50) |
| N[C@H]1CC[C@H](Oc2cc3cc[nH]c(=O)c3cc2Cl)CC1 [Example 14, 6-(trans-4-Amino-cyclohexyloxy)-7-chloro-isoquinolin-1-ol] | +++++ (6.0≦pIC50) |
| O=c1[nH]ccc2cc(O[C@H]3CC[C@H](N(CC4CC4)CC4CC4)CC3)c(Cl)cc12 [Example 66] | ++++ (5.0≦pIC50<6.0) |
| N[C@H]1CC[C@@H](Oc2cc3cc[nH]c(=O)c3cc2Cl)CC1 [Example 10, 6-(cis-4-Amino-cyclohexyloxy)-7-chloro-2H-isoquinolin-1-one] | +++++ (6.0≦pIC50) |
| O=c1[nH]ccc2cc(O[C@H]3CC[C@@H](NCc4ccc5ccccc5c4)CC3)c(Cl)cc12 [Example 77] | +++++ (6.0≦pIC50) |
| O=c1[nH]ccc2cc(O[C@H]3CC[C@@H](NCc4ccc(Cl)cc4Cl)CC3)c(Cl)cc12 [Example 71] | +++++ (6.0≦pIC50) |

— US8796458B2, “Cyclohexylamine isoquinolone derivatives” (Sanofi, priority 2005, dated 2014)
